Test results reported in ChEMBL document CHEMBL5042549, “Discovery of Inhibitors of the Lipopolysaccharide Transporter MsbA: From a Screening Hit to Potent Wild-Type Gram-Negative Activity” (J Med Chem, 2022).
Converted amounts (≈) assume the structure as drawn. “And” between values parts separate entries of the source, which are not always exact repeats. Equal values may be shown once. The source made the active and inactive calls. The rule behind the calls is not given here.

Experiments:
[1] = Half life in CD-1 mouse at 1 mg/kg, iv measured upto 8 hrs by LC-MS/MS analysis; assay type: ADME, organism-based; conditions: in vivo
[2] = Lipophilicity, logD of compound by shake flask method; assay type: physicochemical; conditions: octanol/water
Escherichia coli [3] = experiment: Antibacterial activity against wild type Escherichia coli CFT073 (ATCC 700928) assessed as induction of cell lysis at 50 microM by electron microscopy; assay type: functional, organism-based
Acinetobacter baumannii = experiment: Antibacterial activity against wild type Acinetobacter baumannii (ATCC 17978) assessed as bacterial growth inhibition by broth microdilution assay; assay type: functional
Enterobacter cloacae [4] = experiment: Antibacterial activity against wild type Enterobacter cloacae (ATCC 13047) assessed as membrane stacking at 50 microM by electron microscopy; assay type: functional, organism-based
Klebsiella pneumoniae [5] = experiment: Antibacterial activity against wild type Klebsiella pneumoniae MGH78578 (ATCC 700721) assessed as bacterial growth inhibition by broth microdilution assay; assay type: functional
Klebsiella pneumoniae [6] = experiment: Antibacterial activity against wild type Klebsiella pneumoniae MGH78578 (ATCC 700721) assessed as membrane stacking at 50 microM by electron microscopy; assay type: functional, organism-based
Escherichia coli [7] = experiment: Selectivity ratio of MIC for Escherichia coli MG1655 msbA-cKO lptD (imp4213) […]; assay type: functional
Escherichia coli [8] = experiment: Antibacterial activity against wild type Escherichia coli MG1655 msbA-cKO lptD (imp4213) expressing Acinetobacter baumannii MsbA assessed as bacterial growth inhibition by broth microdilution assay; assay type: functional
Escherichia coli [9] = experiment: Antibacterial activity against wild type Escherichia coli CFT073 (ATCC 700928) assessed as bacterial growth by broth microdilution assay; assay type: functional
[10] = Inhibition of Escherichia coli MsbA preincubated for 10 mins followed by ATP addition and incubated for 1 hr by fluorescence polarization assay
Enterobacter cloacae [11] = experiment: Antibacterial activity against wild type Enterobacter cloacae (ATCC 13047) assessed as bacterial growth inhibition by broth microdilution assay; assay type: functional
Escherichia coli [12] = experiment: Antibacterial activity against wild type Escherichia coli MG1655 msbA-cKO lptD (imp4213) expressing Escherichia coli MsbA assessed as bacterial growth inhibition by broth microdilution assay; assay type: functional
[13] = Clearance in CD-1 mouse at 1 mg/kg, iv measured upto 8 hrs by LC-MS/MS analysis; assay type: ADME, organism-based; conditions: in vivo
Pseudomonas aeruginosa = experiment: Antibacterial activity against wild type Pseudomonas aeruginosa PA14 assessed as bacterial growth inhibition by broth microdilution assay; assay type: functional

Q: Which half-life [1] does the source give for C[C@H](Oc1ccc2ccc(/C=C/c3nn[nH]n3)c(C3CC3)c2c1)c1c(Cl)cccc1Cl here?
A: 1.4 h

Q: And the logD [2]?
A: 4.3

Q: What about the Activity (Escherichia coli [3]) of the same compound?
A: Active

Q: What about the MIC (Acinetobacter baumannii) of the same compound?
A: > 100 µM

Q: What about the Activity (Enterobacter cloacae [4]) of the same compound?
A: Active

Q: And the MIC (Klebsiella pneumoniae [5])?
A: 6 µM (≈ 2.71 µg/mL)

Q: What about the Activity (Klebsiella pneumoniae [6]) of the same compound?
A: Active

Q: And the Selectivity ratio (Escherichia coli [7])?
A: > 89

Q: And the MIC (Escherichia coli [8])?
A: > 71 µM

Q: And the MIC (Escherichia coli [9])?
A: 6 µM and 2.7 µg/mL

Q: What about the IC50 [10] of the same compound?
A: 3 nM

Q: And the MIC (Enterobacter cloacae [11])?
A: 6 µM (≈ 2.71 µg/mL)

Q: What about the MIC (Escherichia coli [12]) of the same compound?
A: 0.8 µM (≈ 0.361 µg/mL)

Q: What about the clearance [13] of the same compound?
A: 8 mL/min/kg

Q: What about the MIC (Pseudomonas aeruginosa) of the same compound?
A: > 100 µM
